Here are results for 11 compounds from US9795694B2, “Imaging beta-amyloid peptides aggregation” (Hong Kong Baptist University, priority 2014, dated 2017).

Entries after “also recorded” stand apart in the source; their conditions may differ.

The target of data set [1] is T1, Aβ (1-40) peptide aggregation / fibril formation (Homo sapiens, UniProt P05067).
T1 construct: Aβ(1-40) fibrils prepared from Aβ40 with seed incubated at 37° C. for an hour in buffer
The data set can be described thus: TIRFM study of inhibition of Aβ fibril formation. The data set is classed as biochemical. Conditions: for inhibition of Aβ peptide aggregation and fibril growth: TIRFM, ThT dye excited at 445 nm. The text has this: These images were obtained by an addition of ThT dye excited at 445 nm.
The panels below show the images of seed only and Aβ fibril formation without the carbazole-based fluorophore for comparison. These images were obtained by an addition of ThT dye excited at 445 nm.
A novel series of water-soluble carbazole-based fluorophores has been designed and developed. […] Upon binding with Aβ peptides, there is about 8- to about 82-fold increase in fluorescence intensity concomitant with the substantial blue shifts (Δλ=14-22 nm) in the emission spectra of the fluorophores (FIG. 2A-2H). […] (e.g. Ffibril/FSLOH=81.5 vs. Fpeptide/FSLOH=6.3). Because of such strong increase in fluorescence, the signal-to-noise ratio is so high that imaging of single fibrils is possible. (FIG. 3A-3C) Compared to common commercial labeling dyes for Aβ such as Thioflavin-T and Congo Red, the carbazole-based fluorophores of the present invention provide an advantage of a wide range of excitation and emission tuning in visible to infra-red region (FIG. 4A-4B). Some of these molecules, e.g., SAM and SAOH, even emit at ˜[…] (FIG. 5A-5B), which can potentially be used for near infra-red fluorescence imaging. In addition to fluorescence titration, the binding of Aβ peptide and fibril with the carbazole-based fluorophores of the present invention were further confirmed by circular dichroism spectroscopy (FIG. 6A-6B), and electrospray ionization-mass spectrometry (ESI-MS). Total Internal Reflection Fluorescence Microscope (TIRFM) technique developed by us was used to investigate the inhibition effects of these functional fluorophores on Aβ fibril formation (FIG. 7A-7F). […] Such inhibitory effect was further confirmed by Transmission Electron Microscopy (TEM) study (FIG. 8A-8B).
The inhibitory effect of the carbazole-based fluorophores of the present invention on Aβ fibril growth was further investigated by measuring the (average) length of the Aβ fibrils formed after incubation of the Aβ monomers for 60 min with additions of SLOH at different time points during this period (FIG. 9A-9B). Parallel experiments conducted without any addition of SLOH were used as controls.
Total Internal Reflection Fluorescence Microscope (TIRFM) technique developed was used to investigate the inhibition effects of these functional fluorophores on Aβ (1-40) fibril formation (FIG. 17).

Data set [2] is described as follows: Blood-brain barrier penetration after tail vein injection. The class given is in vivo. Conditions: mice. The text has this:
(§1) However, in order for the observed neuroprotective effect to be clinically useful, these molecules need to be able to pass through the blood-brain barrier.

Data set [3] concerns SH-SY5Y neuronal cell. The data set can be described thus: MTT reduction assay, cytotoxicity. How it is done:
Human neuroblastoma SH-SY5Y neuronal cells were incubated with different concentrations of SLCOOH-conjugated SiO2@Fe3O4 nanoparticles at 37° C. for 24 h.

Data set [4] concerns primary cortical neural cells. The data set can be described thus: Protection from Aβ-induced cytotoxicity. The class given is cell-based. Conditions: Aβ monomer, oligomers and fibrils. The text has this:
(§2) The reactive oxygen species (ROS) induced by the Aβ toxicity causes much damage in AD.

The test system of data set [5] is ROS in primary cortical cells. The data set can be described thus: Reduction of ROS induced by Aβ species. The class given is cell-based.
From the text: as §2

Another data set deals with Aβ plaques. The data set can be described thus: Aβ plaque targeting in brain, co-stained with ThT or Aβ antibody. Conditions: brain slides co-stained with ThT or Aβ antibody with DAB stain. The data set is classed as in vivo, transgenic mice.
From the text: as §1
(A) Differential Interference Contrast (DIC) image of the brain slice of a 12-month-old APP/PS1 Tg mouse. (B) Histological staining of the brain slice with SLCOOH-conjugated SiO2@Fe3O4 nanoparticles (λex=500 nm, λem=620-680 nm). (C) ThT fluorescence images of the brain slice captured with λex=405 nm, λem=460-490 nm (D) The superimposed images of (B) and (C).

For data set [6], the system named is Aβ(1-40) and Aβ(1-42) peptides. The data set can be described thus: Fluorescence titration of the fluorophores with Aβ peptides. The data set is classed as binding. The following applies: Aβ peptide. The text has this:
(§3) A novel series of water-soluble carbazole-based fluorophores has been designed and developed. […] Upon binding with Aβ peptides, there is about 8- to about 82-fold increase in fluorescence intensity concomitant with the substantial blue shifts (Δλ=14-22 nm) in the emission spectra of the fluorophores (FIG. 2A-2H). […] (e.g. Ffibril/FSLOH=81.5 vs. Fpeptide/FSLOH=6.3). Because of such strong increase in fluorescence, the signal-to-noise ratio is so high that imaging of single fibrils is possible. (FIG. 3A-3C) Compared to common commercial labeling dyes for Aβ such as Thioflavin-T and Congo Red, the carbazole-based fluorophores of the present invention provide an advantage of a wide range of excitation and emission tuning in visible to infra-red region (FIG. 4A-4B). Some of these molecules, e.g., SAM and SAOH, even emit at ˜[…] (FIG. 5A-5B), which can potentially be used for near infra-red fluorescence imaging. In addition to fluorescence titration, the binding of Aβ peptide and fibril with the carbazole-based fluorophores of the present invention were further confirmed by circular dichroism spectroscopy (FIG. 6A-6B), and electrospray ionization-mass spectrometry (ESI-MS). Total Internal Reflection Fluorescence Microscope (TIRFM) technique developed by us was used to investigate the inhibition effects of these functional fluorophores on Aβ fibril formation (FIG. 7A-7F). […]

The target in a further data set is T2, Aβ(1-40) fibrils (Homo sapiens, UniProt P05067).
T2 construct: Aβ(1-40) fibrils prepared from Aβ40 with seed incubated at 37° C. for an hour in buffer
The data set can be described thus: Fluorescence titration of the fluorophores with Aβ fibrils. The class given is binding.
From the text: as §3

The subject of data set [7] is SH-SY5Y neuronal cell. The data set can be described thus: Protection of neuronal cells from Aβ oligomer and fibril toxicity. The data set is classed as cell-based, Human. Conditions: incubated for 2 and 6 hours.
A short description of data set [8]: Fluorescence spectra in phosphate buffer solution. The class given is physicochemical.
From the text: as §3

T1 sequence (P05067 672-711): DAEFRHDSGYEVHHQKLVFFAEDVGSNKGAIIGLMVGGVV
T2 sequence (P05067 672-711): as above

`CCOC(=O)C[n+]1ccc(/C=C/c2ccc3c(c2)c2ccccc2n3CCOCCOC)c2ccccc21` [SLAce, (E)-1-(2-Ethoxy-2-oxoethyl)-4-(2-(9-(2-(2-methoxyethoxy)ethyl)-9H-carbazol-3-yl)vinyl)quinolin-1-ium bromide]: in data set [1], the “inhibition of Aβ peptide aggregation and fibril growth” value (“inhibition” below) was “inhibit Aβpeptide aggregation and prevent fibril growth; also recorded: inhibit Aβ (1-40) peptide aggregation and prevent fibril growth”. In data set [2], the “ability to penetrate the blood-brain barrier” value (shortened to “ability”) is reported as “show blood-brain permeability”.

`COCCOCCn1c2ccccc2c2cc(/C=C/c3cc[n+](CC(N)=O)c4ccccc34)ccc21` [SLAD, (E)-1-(2-Amino-2-oxoethyl)-4-(2-(9-(2-(2-methoxyethoxy)ethyl)-9H-carbazol-3-yl)vinyl)quinolin-1-ium bromide]: the “inhibition” value in [1] was “inhibit Aβpeptide aggregation and prevent fibril growth; also recorded: inhibit Aβ (1-40) peptide aggregation and prevent fibril growth; also recorded: potent Aβ aggregation inhibitors”. The “toxicity (in words)” value in the data set with SH-SY5Y neuronal cell [3] is recorded as “non-toxic”. The “protection from the neurotoxic effects of the Aβ species” value in data set [4] is “protected from the neurotoxic effects of the Aβ species; also recorded: protective effect against the neurotoxic activities of the Aβ oligomers and fibrils”. Also, the “reduction of ROS induced by the Aβ species” value in data set [5] is on record as “reduce the ROS induced by the Aβ species”. The “ability” value in data set [2] is given as “show blood-brain permeability; also recorded: ability to cross the blood-brain barrier”. The “targeting of / selectivity towards Aβ plaques in brain” value in the data set on Aβ plaques was “target the Aβ plaques; also recorded: colocalization of fluorescence signals of SLAD and Aβ antibody”.

In the case of `Cn1c2ccccc2c2cc(/C=C/c3cc[n+](C)c4ccccc34)ccc21` [Me-SLM, (E)-1-methyl-4-(2-(9-methyl-9H-carbazol-3-yl)vinyl)quinolinium iodide], the “inhibition” value in data set [1] was “inhibit Aβ peptide aggregation and prevent fibril growth”.

For the compound `COCCOCCn1c2ccccc2c2cc(/C=C/c3cc[n+](CCCO)c4ccccc34)ccc21` [SLOH-Pr, (E)-1-(3-hydroxypropyl)-4-(2-(9-(2-(2-methoxyethoxy)ethyl)-9H-carbazol-3-yl)vinyl)-quinolinium bromide], in data set [1], the “inhibition” value was “inhibit Aβ peptide aggregation and prevent fibril growth”.

As for `COCCOCCn1c2ccccc2c2cc(/C=C/c3cc[n+](CCO)c4ccccc34)ccc21` [SLOH, (E)-1-(2-hydroxyethyl)-4-(2-(9-(2-(2-methoxyethoxy)ethyl)-9H-carbazol-3-yl)vinyl)-quinolinium chloride], the Fpeptide/FSLOH fluorescence enhancement in [6] is on record as 6.3. In addition, the Ffibril/FSLOH fluorescence enhancement on Aβ(1-40) fibrils is recorded as 81.5. In addition, the “Aβ fibril growth (average fibril length) on addition of the compound” value in data set [1] (50 μM added at different time points within 60 min incubation of Aβ monomer) is “strongly arrests its fibril growth”. The “inhibition” value in data set [1] is “inhibition of Aβ fibril formation; also recorded: inhibit Aβ peptide aggregation and prevent fibril growth; also recorded: potent inhibitor of Aβ aggregation”. Also, the “toxicity (in words)” value in the data set with SH-SY5Y neuronal cell [3] is given as “non-toxic”. Besides, the “protection from the neurotoxic effects of Aβ oligomers and fibrils” value in the data set with SH-SY5Y neuronal cell [7] is “protected from the neurotoxic effects of the Aβ oligomers and fibrils; also recorded: protective effect against the neurotoxic activities of the Aβ oligomers and fibrils”. Besides, the “targeting of / selectivity towards Aβ plaques in brain” value with Aβ plaques was “colocalization of fluorescence signals of SLOH and ThT; also recorded: colocalization of fluorescence signals of SLOH and Aβ antibody; also recorded: selectivity of SLOH towards Aβ plaques”.

Take `COCCOCCn1c2ccccc2c2cc(/C=C/c3c4ccccc4[n+](C)c4ccccc34)ccc21.[I-]` [SAM, (E)-9-(2-(9-(2-(2-methoxyethoxy)ethyl)-9H-carbazol-3-yl)vinyl)-10-methylacridinium iodide]: in data set [1], the “inhibition” value is “inhibit Aβ peptide aggregation and prevent fibril growth”. This compound also returned an emission wavelength in data set [8] of around 760 nm.

Regarding `COCCOCCn1c2ccccc2c2cc(/C=C/c3cc[n+](CC(=O)O)c4ccccc34)ccc21.[Br-]` [SLCOOH, (E)-1-(carboxymethyl)-4-(2-(9-(2-(2-methoxyethoxy)ethyl)-9H-carbazol-3-yl)vinyl)quinolin-1-ium bromide], in the data set with SH-SY5Y neuronal cell [3], the “toxicity (in words)” value was “non-toxic”. Moreover, in data set [2], the “ability” value is given as “BBB penetrable”. In addition, the “targeting of / selectivity towards Aβ plaques in brain” value in the data set with Aβ plaques is listed as “able to target the Aβ species in-vivo with high affinity”.

As for `COCCOCCn1c2ccc(F)cc2c2cc(/C=C/c3cc[n+](CCO)c4ccccc34)ccc21` [F-SLOH, (E)-4-(2-(6-Fluoro-9-(2-(2-methoxyethoxy)ethyl)-9H-carbazol-3-yl)vinyl)-1-(2-hydroxyethyl)quinolin-1-ium chloride], the “inhibition” value in [1] was “inhibit Aβpeptide aggregation and prevent fibril growth; also recorded: inhibit Aβ (1-40) peptide aggregation and prevent fibril growth; also recorded: potent Aβ aggregation inhibitors”. Moreover, in the data set on SH-SY5Y neuronal cell [3], the “toxicity (in words)” value is reported as “non-toxic”. The “protection from the neurotoxic effects of the Aβ species” value in [4] was “protected from the neurotoxic effects of the Aβ species; also recorded: protective effect against the neurotoxic activities of the Aβ oligomers and fibrils”. Moreover, the “reduction of ROS induced by the Aβ species” value in data set [5] was “reduce the ROS induced by the Aβ species”. Also, in data set [2], the “ability” value is “show blood-brain permeability; also recorded: ability to cross the blood-brain barrier”. For the same compound, the “targeting of / selectivity towards Aβ plaques in brain” value in the data set on Aβ plaques is on record as “target the Aβ plaques”.

`COCCOCCn1c2ccccc2c2cc(/C=C/c3cc[n+](CCOCCOC)c4ccccc34)ccc21` [SLG, (E)-1-(2-(2-methoxyethoxy)ethyl)-4-(2-(9-(2-(2-methoxyethoxy)ethyl)-9H-carbazol-3-yl)vinyl)quinolinium iodide]: in data set [1], the “inhibition” value was “inhibit Aβpeptide aggregation and prevent fibril growth; also recorded: inhibit Aβ (1-40) peptide aggregation and prevent fibril growth”. Moreover, the “ability” value in data set [2] is given as “show blood-brain permeability”.

On to `COCCOCCn1c2ccccc2c2cc(/C=C/c3c4ccccc4[n+](CCO)c4ccccc34)ccc21.[I-]` [SAOH, (E)-10-(2-hydroxyethyl)-9-(2-(9-(2-(2-methoxyethoxy)ethyl)-9H-carbazol-3-yl)vinyl)-acridinium iodide], for which the “inhibition” value in [1] was “inhibition of Aβ fibril formation; also recorded: inhibit Aβ peptide aggregation and prevent fibril growth; also recorded: potent inhibitor of Aβ aggregation”. Moreover, the “toxicity (in words)” value in the data set on SH-SY5Y neuronal cell [3] was “non-toxic”. Besides, the “protection from the neurotoxic effects of Aβ oligomers and fibrils” value in the data set with SH-SY5Y neuronal cell [7] was “protected from the neurotoxic effects of the Aβ oligomers and fibrils; also recorded: protective effect against the neurotoxic activities of the Aβ oligomers and fibrils”. Also, the emission wavelength in data set [8] is around 760 nm.

Take `CC[n+]1ccc(/C=C/c2ccc3c(c2)c2ccccc2n3CCOCCOC)c2ccccc21` [SLE, (E)-1-ethyl-4-(2-(9-(2-(2-methoxyethoxy)ethyl)-9H-carbazol-3-yl)vinyl)quinolinium bromide]: the “inhibition” value in data set [1] is “inhibit Aβ peptide aggregation and prevent fibril growth”.
